The source of these data is patent US20030064385A1, “Genes expressed in breast cancer as prognostic and therapeutic targets” (priority 2001, published 2003).

The structures appear in SMILES notation.

This experiment relates to primary invasive breast cancer. The experiment in a line: Clinical tumor response (WHO criteria) in randomized Phase III neoadjuvant trial of letrozole versus tamoxifen; patients with profiled biopsies. Format: in vivo, human. To be noted: clinical outcome of patients with profiled pre-treatment biopsies; postmenopausal women; response by palpation at 4 months. From the text:
Definitions of Objective Response Used in the Letrozole (FEMARA™) vs. Tamoxifen Comparison Study
1. Complete Response (CR): The disappearance of all known disease, determined by 2 observations not less than 4 weeks apart.
2. Partial Response (PR): A 50% or more decrease in total tumor size of the lesions which have been measured to determine the effect of therapy by 2 observations not less than 4 weeks apart. In addition there can be no appearance of new lesions or progression of any lesion.
4. Progressive Disease (PD): A 25% or more increase in the size of one or more measurable lesions, or the appearance of new lesions.
Clinical Response Assessment
The primary efficacy variable was tumor response, assessed by clinical examination using World Health Organization (WHO) criteria (see, WHO Handbook for Reporting Results of Cancer Treatment). It was defined as the percentage of patients in each treatment group with a CR or PR as determined clinically in the breast by palpation at 4 months. Possible responses were CR, PR, NC, PD or not assessable/not evaluable (NA/NE). Palpable ipsilateral axillary lymph nodal involvement downgraded a clinical CR in tumor. Other factors were also considered such the percentage of patients who underwent breast-conserving surgery (quadrantectomy/lumpectomy) instead of mastectomy. Patients who became inoperable, or who remained inoperable at 4 months, were counted as treatment failures.
Twenty-one RNA samples were extracted from 14-gauge needle core biopsies collected before initiation of neoadjuvant endocrine therapy from patients enrolled in a randomized Phase III trial of letrozole (FEMARA™, Novartis Pharma, Basal Switzerland) versus tamoxifen for postmenopausal women with primary invasive breast cancer ineligible for breast conserving surgery. RNA was extracted from an additional 30 primary breast adenocarcinomas collected in Sweden, one additional ESR1+breast tumor surgical biopsy, two HUVEC samples, two samples from glioblastoma cell line U373-MG and one MCF7 sample using Trizol (Life Technologies, Gaithersburg, Md.). The clinical samples were collected after informed consent had been obtained according to protocols approved by local ethics committees. RNA was purchased for two samples, an infiltrating Stage III duct carcinoma (Ambion, Austin, Tex.) and a pool of two normal breast tissues (Clontech, Palo Alto, Calif.). The total number of samples prepared was 59 including 53 breast cancer biopsies and one pooled normal breast sample. Total RNA was purified using QIAGEN RNEASY™ columns (Qiagen, Valencia, Calif.), processed and hybridized to the HUGENE™ FL 6800 Array (Affymetrix, Santa Clara, Calif.), as described by Lockhart et al., Nat. Biotechnol., Vol. 14, pp. 1675-1680 (1996).
In another aspect of the invention 136 breast biopsies from 53 patients were obtained. RNA was extracted from 116 biopsies. Expression profiles were generated for 43 biopsies from 35 patients. Predictive markers of endocrine therapy responsiveness in breast tumors were identified. The breakdown of the profiled biopsies from the pre-letrozole (FEMARA™) treatments and the patient's clinical outcome was as follows: four patients with CR, nine patients with PR, four patients with NC and four patients with PD.
For the group treated with tamoxifen there were no patients in the CR category, 10 patients with PR, seven patients with NC and four patients with PD.

Take `N#Cc1ccc(C(c2ccc(C#N)cc2)n2cncn2)cc1` [letrozole]: the “patients with CR (complete response)” value is on record as “four”, the “patients with NC (no change)” value is reported as “four”, the “patients with PD (progressive disease)” value is “four” and the “patients with PR (partial response)” value was “nine”.
As to `CC/C(=C(\c1ccccc1)c1ccc(OCCN(C)C)cc1)c1ccccc1` [tamoxifen], the “patients with CR (complete response)” value is recorded as “no patients”, the “patients with NC (no change)” value was “seven”, the “patients with PD (progressive disease)” value was “four” and the “patients with PR (partial response)” value is on record as 10 patients.
